Laboratory results from patent US10793547B2, “Modulator of the cystic fibrosis transmembrane conductance regulator, pharmaceutical compositions, methods of treatment, and process for making the modulator” (Vertex Pharmaceuticals Incorporated, priority 2016, dated 2020).
Where two headings read alike, the source gives them in different places.

What was measured:
[1] = target: T1, human PXR (Homo sapiens, UniProt O75469); experiment: PXR assay: PXR mediated CYP3A4 induction in DPX-2 cell line; assay type: cell-based; settings: DPX-2 cells
T1 construct: host or cells: DPX-2 cell line (derived from HepG2)
T1 sequence (O75469 1-434): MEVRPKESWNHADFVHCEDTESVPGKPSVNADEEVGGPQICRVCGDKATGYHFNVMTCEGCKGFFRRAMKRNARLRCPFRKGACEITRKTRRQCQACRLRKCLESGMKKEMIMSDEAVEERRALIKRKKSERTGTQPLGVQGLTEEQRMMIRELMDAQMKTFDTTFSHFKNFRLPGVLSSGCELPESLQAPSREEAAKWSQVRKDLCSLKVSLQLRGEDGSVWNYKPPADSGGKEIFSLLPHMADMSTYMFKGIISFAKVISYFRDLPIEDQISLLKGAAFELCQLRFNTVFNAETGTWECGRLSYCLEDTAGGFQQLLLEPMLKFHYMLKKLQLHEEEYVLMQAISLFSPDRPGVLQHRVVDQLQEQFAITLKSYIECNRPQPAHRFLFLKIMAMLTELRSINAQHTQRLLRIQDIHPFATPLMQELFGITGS
In short: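 HepG2-derived DPX-2 cells stably carrying human PXR and a CYP3A4 promoter/enhancer–luciferase reporter; 11 doses from 0.1 to 60 μM for 48 h, rifampicin as positive control. Viability read by fluorescence, then luciferase luminescence; max fold induction over vehicle and EC50 reported.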

[2] = test system: Rat hepatocytes; experiment: Hepatocyte clearance, rat hepatocytes; assay type: in vitro ADME; settings: percent unchanged
[3] = target: T2, F508del-CFTR (Homo sapiens, UniProt P13569, DEL508-508); experiment: Membrane potential optical (FLIPR) assay for F508del-CFTR modulators in NIH 3T3 cells; assay type: cell-based; settings: for EC50: assay A1
T2 construct: expressed in transfected cells
T2 sequence (P13569 with tags, fused parts or gaps DEL508-508): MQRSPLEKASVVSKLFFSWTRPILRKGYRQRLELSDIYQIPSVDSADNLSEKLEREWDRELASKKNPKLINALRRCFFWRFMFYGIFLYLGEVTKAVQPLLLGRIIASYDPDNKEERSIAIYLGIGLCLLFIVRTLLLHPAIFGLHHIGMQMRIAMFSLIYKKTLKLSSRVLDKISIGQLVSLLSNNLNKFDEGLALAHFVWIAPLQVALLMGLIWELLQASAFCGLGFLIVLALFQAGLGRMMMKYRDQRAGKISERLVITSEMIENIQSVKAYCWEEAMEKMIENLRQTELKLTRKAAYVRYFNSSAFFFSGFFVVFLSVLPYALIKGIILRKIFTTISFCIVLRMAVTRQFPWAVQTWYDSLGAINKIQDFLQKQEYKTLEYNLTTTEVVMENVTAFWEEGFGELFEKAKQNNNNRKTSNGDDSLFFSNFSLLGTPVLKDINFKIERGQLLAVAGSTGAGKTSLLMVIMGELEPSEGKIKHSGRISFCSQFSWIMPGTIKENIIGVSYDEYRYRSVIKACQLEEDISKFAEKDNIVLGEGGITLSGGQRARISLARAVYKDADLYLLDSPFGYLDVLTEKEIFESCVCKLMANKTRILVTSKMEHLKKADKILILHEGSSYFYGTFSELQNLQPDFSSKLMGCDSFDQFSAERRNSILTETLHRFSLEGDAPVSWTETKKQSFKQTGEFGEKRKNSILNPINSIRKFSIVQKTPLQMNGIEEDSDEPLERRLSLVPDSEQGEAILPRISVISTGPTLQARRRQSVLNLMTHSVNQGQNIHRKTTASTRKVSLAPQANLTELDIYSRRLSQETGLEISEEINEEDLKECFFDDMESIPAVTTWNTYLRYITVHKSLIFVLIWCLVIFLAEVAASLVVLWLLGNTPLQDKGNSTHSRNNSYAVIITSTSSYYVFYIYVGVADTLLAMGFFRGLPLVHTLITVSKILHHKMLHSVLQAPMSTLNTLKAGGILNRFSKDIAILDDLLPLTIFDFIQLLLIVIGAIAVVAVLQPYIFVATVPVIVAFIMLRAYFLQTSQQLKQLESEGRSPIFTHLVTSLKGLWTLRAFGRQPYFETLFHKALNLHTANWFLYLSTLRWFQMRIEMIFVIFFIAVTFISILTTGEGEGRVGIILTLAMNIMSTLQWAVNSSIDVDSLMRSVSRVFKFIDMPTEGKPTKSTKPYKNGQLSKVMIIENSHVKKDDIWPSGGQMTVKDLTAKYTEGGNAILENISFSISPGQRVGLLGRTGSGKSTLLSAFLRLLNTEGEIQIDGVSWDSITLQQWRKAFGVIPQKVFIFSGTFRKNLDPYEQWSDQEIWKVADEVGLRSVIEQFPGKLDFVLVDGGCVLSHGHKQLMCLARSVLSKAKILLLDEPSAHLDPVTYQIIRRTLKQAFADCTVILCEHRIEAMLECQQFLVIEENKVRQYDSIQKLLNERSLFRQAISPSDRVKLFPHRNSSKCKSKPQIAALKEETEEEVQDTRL
In short: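 NIH3T3 mouse fibroblasts stably expressing F508del, seeded on matrigel and cultured 18-24 h at 37 °C; for correction, cells were cultured with or without compound for 18-24 h. Cells were loaded with voltage-sensing dye, then compound was added in one step with a chloride gradient (chloride replaced by gluconate). Membrane potential was read by fluorescence.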

[4] = Metabolism of Compound 1 in vitro and in vivo
[5] = MDCK-Wild Type permeability, 96 well + 0.1% BSA; assay type: in vitro ADME; settings: dog, MDCK, A-B direction, read-out: MDCK-Wild Type-Permeability 96 well + 0.1% BSA Papp compound (A-B)
[6] = Rat IV and PO PK studies; assay type: in vivo, male Sprague-Dawley rats; settings: for RAT PLASMA-RAW IV-bolus CL_drg: nominal 3.0 mg/kg; for RAT PLASMA-RAW PO % F_drg / AUC(0-inf): nominal 3 mg/kg, PO; for AUC(0-inf): male, Sprague-Dawley, plasma, read-out: RAT PLASMA-RAW PO AUC (0-inf)_drg
Description: C. Experimental Protocol for Rat IV and PO PK Studies
The tested compound was administered to male Sprague-Dawley rats as a single nominal intravenous dose of 3.0 mg/kg as a solution in 10% NMP, 10% solution, 15% EtOH, 35% PEG400 and 30% D5W. The tested compound was also administered to male Sprague-Dawley rats at single nominal oral dose of 3 mg/kg as a solution in 5% NMP, 30% PEG400, 10% TPGS, 5% PVP-K30 at 5 mL/kg dose volume. Analyses of plasma and dose preparations were performed using LC/MS/MS.
Plasma concentration-time profiles of the tested compound in Sprague-Dawley rats at scheduled (nominal) sampling times were analyzed by noncompartmental pharmacokinetic methods using PK function within Watson LIMS software, Version 7.4.2 (Thermo Scientific Inc, Waltham, Mass.). AUC values were calculated using the linear trapezoidal rule.

[7] = test system: F508del/F508del-HBE cells; experiment: Ussing chamber chloride transport experiment; assay type: cell-based
Description: Ussing chamber experiments were performed on polarized airway epithelial cells expressing F508del to further characterize the F508del modulators identified in the optical assays. Non-CF and CF airway epithelia were isolated from bronchial tissue, cultured as previously described (Galietta, L. J. V., Lantero, S., Gazzolo, A., Sacco, O., Romano, L., Rossi, G. A., & Zegarra-Moran, O. (1998) In Vitro Cell. Dev. Biol. 34, 478-481), and plated onto Costar® Snapwell™ filters that were precoated with NIH3T3-conditioned media. After four days the apical media was removed and the cells were grown at an air liquid interface for >14 days prior to use. […] CF-HBE were isolated from patients homozygous for F508del or compound heterozygous for F508del with an different disease causing mutation on the other allele.
HBE grown on Costar® Snapwell™ cell culture inserts were mounted in an Ussing chamber (Physiologic Instruments, Inc., San Diego, Calif.), and the transepithelial resistance and short-circuit current in the presence of a basolateral to apical Cl^− gradient (ISC) were measured using a voltage-clamp system (Department of Bioengineering, University of Iowa, Iowa). Briefly, HBE were examined under voltage-clamp recording conditions (Vhold=0 mV) at 37° C. […]

[8] = NIH 3T3 cells expressing F508del, read-out: CFTRdF508 Cor 3T3 FLIPR 384 CFTRdF508 MP 3T3 770 EC50

Compound	CYP3A4 Induction-PXR human PXR internal Max % Activity [1] [%]	Hepatocyte clearance-Rat Rat hepatocytes CL pct_unchanged [2] [%]	EC50 [3, 8] [nM]	metabolite identity [4]	Papp A→B [5] [×10⁻⁶ cm/s]	RAT PLASMA-RAW IV-bolus CL_drg [6] [mL/min/kg]	RAT PLASMA-RAW PO % F_drg [6] [%]	AUC(0-inf) [6] [ng·h/mL]	Emax ([3]; NIH3T3, assay A1, read-out: % Efficacy relative to Compound II) [%]	EC50 ([3]; read-out: EC50) [nM]	effect on chloride transport in combination with Compound II [7]	chloride transport ([7]; Compound 1 alone)	metabolism ([4]; in vitro and in vivo)
C[C@@H]1CN(c2nc(-n3ccc(OCC(C)(C)C(F)(F)F)n3)ccc2C(=O)NS(=O)(=O)c2cn(C)nc2CO)C(C)(C)C1 [Compound 39, N-[3-(hydroxymethyl)-1-methyl-pyrazol-4-yl]sulfonyl-6-[3-(3,3,3-trifluoro-2,2-dimethyl-propoxy)pyrazol-1-yl]-2-[(4S)-2,2,4-trimethylpyrrolidin-1-yl]pyridine-3-carboxamide]	1	39	460	metabolites of Compound 1									
C[C@H]1CC(C)(C)N2c3nc(-n4ccc(OCC(C)(C)C(F)(F)F)n4)ccc3C(=O)OC12 (stereo partly drawn) [Compound 57, (7S)-7,9,9-trimethyl-2-(3-(3,3,3-trifluoro-2,2-dimethylpropoxy)-1H-pyrazol-1-yl)-6a,7,8,9-tetrahydro-5H-pyrido[2,3-d]pyrrolo[2,1-b][1,3]oxazin-5-one]	13	35	30000	metabolites of Compound 1									
Cc1nn(C)cc1S(=O)(=O)NC(=O)c1ccc(-n2ccc(OCC(C)(CO)C(F)(F)F)n2)nc1N1C[C@@H](C)CC1(C)C (stereo partly drawn) [Compound 45, N-(1,3-dimethylpyrazol-4-yl)sulfonyl-6-[3-[3,3,3-trifluoro-2-(hydroxymethyl)-2-methyl-propoxy]pyrazol-1-yl]-2-[(4S)-2,2,4-trimethylpyrrolidin-1-yl]pyridine-3-carboxamide]	9	49	560	metabolites of Compound 1	1.2								
Cc1n[nH]cc1S(=O)(=O)NC(=O)c1ccc(-n2ccc(OCC(C)(C)C(F)(F)F)n2)nc1N1C[C@@H](C)CC1(C)C [Compound 31, (S)—N-((3-methyl-1H-pyrazol-4-yl)sulfonyl)-6-(3-(3,3,3-trifluoro-2,2-dimethylpropoxy)-1H-pyrazol-1-yl)-2-(2,2,4-trimethylpyrrolidin-1-yl)nicotinamide]	1	30	410	metabolites of Compound 1	1.1								
Cc1c(S(=O)(=O)NC(=O)c2ccc(-n3ccc(OCC4C(C)(C)C4(C)C)n3)nc2N2C[C@@H](C)CC2(C)C)cnn1C [Compound 21, N-(1,5-dimethylpyrazol-4-yl)sulfonyl-6-[3-[(2,2,3,3-tetramethylcyclopropyl)methoxy]pyrazol-1-yl]-2-[(4S)-2,2,4-trimethylpyrrolidin-1-yl]pyridine-3-carboxamide]	1	0	520		3	6.7	47	3900					
Cc1nn(C)cc1S(=O)(=O)NC(=O)c1ccc(-n2ccc(OCC(C)(C)C(F)(F)F)n2)nc1N1C[C@@H](C)CC1(C)C [Compound 1, N-(1,3-dimethylpyrazol-4-yl)sulfonyl-6-[3-(3,3,3-trifluoro-2,2-dimethyl-propoxy)pyrazol-1-yl]-2-[(4S)-2,2,4-trimethylpyrrolidin-1-yl]pyridine-3-carboxamide]	2	66	70		4.5	1.6	83	23500	≥ 100	< 3000	additive to the effect of Compound II	enhanced chloride transport	metabolized both in vitro and in vivo, mostly by oxidative metabolism
Cc1c(S(=O)(=O)NC(=O)c2ccc(-n3ccc(OCC4(C(F)(F)F)CC4)n3)nc2N2C[C@@H](C)CC2(C)C)cnn1C [Compound 9, N-(1,5-dimethylpyrazol-4-yl)sulfonyl-6-[3-[[1-(trifluoromethyl)cyclopropyl]methoxy]pyrazol-1-yl]-2-[(4S)-2,2,4-trimethylpyrrolidin-1-yl]pyridine-3-carboxamide]	7	30	420		6.1	1.7	99	23400					
Cc1nn(C)cc1S(=O)(=O)NC(=O)c1ccc(-n2ccc(OCCC3(C(F)(F)F)CC3)n2)nc1N1C[C@@H](C)CC1(C)C [Compound 15, N-(1,3-dimethylpyrazol-4-yl)sulfonyl-6-[3-[2-[1-(trifluoromethyl)cyclopropyl]ethoxy]pyrazol-1-yl]-2-[(4S)-2,2,4-trimethylpyrrolidin-1-yl]pyridine-3-carboxamide]	3	97	130		2.7	2.5	66	16300					
Cc1nn(C)cc1S(=O)(=O)NC(=O)c1ccc(-n2ccc(OCC(C)(C)C(F)(F)F)n2)nc1N1CC(CO)CC1(C)C (stereo not drawn) [Compound 30, N-(1,3-dimethylpyrazol-4-yl)sulfonyl-2-[4-(hydroxymethyl)-2,2-dimethyl-pyrrolidin-1-yl]-6-[3-(3,3,3-trifluoro-2,2-dimethyl-propoxy)pyrazol-1-yl]pyridine-3-carboxamide]	4	39	950	metabolites of Compound 1	0.6								
Cc1nn(C)cc1S(=O)(=O)N1C(=O)c2ccc(-n3ccc(OCC(C)(C)C(F)(F)F)n3)nc2N2C1[C@@H](C)CC2(C)C (stereo partly drawn) [Compound 36, (75)-6-((1,3-dimethyl-1H-pyrazol-4-yl)sulfonyl)-7,9,9-trimethyl-2-(3-(3,3,3-trifluoro-2,2-dimethylpropoxy)-1H-pyrazol-1-yl)-6a,7,8,9-tetrahydropyrido[3,2-e]pyrrolo[1,2-a]pyrimidin-5(6H)-one]				metabolites of Compound 1									
